EP0840781B1, “METHODS AND DEVICES FOR THE REMOVAL OF PSORALENS FROM BLOOD PRODUCTS” (Cerus Corporation, priority 1995, dated 1996)
Like-named read-outs stand apart in the source and are kept apart here.

How the values were obtained:
R17 = assay: r-17 bacteriophage assay: R17 treated with compound and UVA, remaining titer by plaque count on Hfr 3000 bacteria; type: cell-based; conditions: for R17 inactivation efficiency compared with AMT: varying concentration (Tables 7 and 8, FIGS. 6-10)
How it was run: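 R17 phage (10^9/mL in DMEM) was mixed with test compound and UVA-irradiated for 1–10 minutes; some runs held compound constant and varied UV dose in 1.0 J/cm^2 steps. Serial dilutions were plated on Hfr 3000 bacteria overnight at 37 °C, and remaining titer came from plaque counts. Controls: untreated phage, UV-only and dark.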

[1] = test system: Duck Hepatitis B Virus (DHBV); assay: Inactivation of Duck Hepatitis B Virus in platelet concentrate, read out by PCR amplification; type: biochemical; conditions: 5 J/cm^2 UVA
Experimental: This example describes the protocol for inactivation of Duck Hepatitis B Virus (DHBV), a model for Hepatitis B Virus, using compounds described herein.
DHBV in duck yolk was added to platelet concentrate (PC) to a final concentration of 2 x 10^7 particles per mL and mixed by gentle rocking for ≥15 min. Psoralens S-70, S-59 and AMT were added to 3 mL aliquots of PC in a Teflon™ mini-bag at concentrations of […]. Samples, including controls without added psoralen, were irradiated with 5 J/cm^2 UVA, with mixing at 1 J/cm^2 increments. After irradiation, leukocytes and platelets were separated from virus by centrifugation. The supernatant containing DHBV was digested overnight with 50 µg/mL proteinase K in a buffer containing 0.5% sodium dodecyl sulphate, 20 mM Tris buffer, pH 8.0, and 5 mM EDTA at 55°C. Samples were extracted with phenolchloroform and chloroform, followed by ethanol precipitation. Purified DNA was then used in PCR amplification reactions with a starting input of 10^6 DHBV genomes from each sample. PCR amplicons were generated using primers pairs DCD03/DCD05 (127 bp), DCD03/DCD06 (327 bp) and DCD03/DCD07 (1072 bp). PCR was performed in a standard PCR buffer containing 0.2 mM each deoxyribonucleoside 5'-triphosphates (dATP, dGTP, dCTP, and dTTP), […] each primer, and 0.5 units Taq polymerase per […]. 30 cycles of amplification were performed with the following thermal profile: 95°C 30 sec, 60° C 30 sec, 72° C 1 min. The amplification was followed by a 7 min incubation at 72° C to yield full length products. [[…]-^32P] dCTP was added at an amount of […] per […] in order to detect and quantify the resulting products. Products were separated by electrophoresis on denaturing polyacrylamide slab gels and counted. The absence of signal in a given reaction was taken to indicate effective inactivation of DHBV.

HIV-1 = conditions: 1 Minute Irradiation
Experimental: Pathogen inactivation efficiency of several compounds described herein was evaluated by examining the ability of the compounds to inactivate cell-free virus (HIV). Inactivation of cell-free HIV was performed as follows.
As in the R17 assay, small aliquots of the compounds listed in TABLES 10 and 11, below, at the concentrations listed in the table, were added to stock HIV-1 to a total of 0.5 mL. The stock HIV (10^5 - 10^7 plaque forming units/mL) was in DMEM/15% FBS. […] Controls included HIV-I stock only, HIV-1 plus UVA only, and HIV-I plus the highest concentration of each psoralen tested, with no UVA. Post irradiation. all samples were store frozen at -70° C until assayed for infectivity by a microtiter plaque assay. Aliquots for measurement of residual HIV infectivity in the samples treated with a compound of the present invention were withdrawn and cultured.
Residual HIV infectivity was assayed using an MT-2 infectivity assay. […] The assay medium was 85% DMEM (with a high glucose concentration) containing 100 µg of streptomycin, 100 U of penicillin, 50 µg of gentamicin, and 1 µg of amphotericin B per mL, 15% FBS and 2 µg of Polybrene (Sigma Chemical Co., St. Louis, Mo.) per mL. Test and control samples from the inactivation procedure were diluted in 50% assay medium and 50% normal human pooled plasma. The samples were serially diluted directly in 96-well plates (Coming Glass Works, Coming, N.Y.). The plates were mixed on an oscillatory shaker for 30 seconds and incubated at 37°C in a 5% CO2 atmosphere for 1 to 18 hours. […] After an additional 1 hour of incubation at 37°C in 5% CO2, 0.075 mL of assay medium containing 1.6% SeaPlaque agarose (FMC Bioproducts, Rockland, Maine) and prewarmed to 38.5°C was added to each well. The plates were kept at 37°C for a few minutes until several plates had accumulated and then centrifuged in plate carriers at 600 x g for 20 minutes in a centrifuge precooled to 10°C. In the centrifuge, cell monolayers formed prior to gelling of the agarose layer. The plates were incubated for 5 days at 37°C in 5% CO2 and stained by the addition of 0.05 mL of 50 µg/mL propidium iodide (Sigma Chemical Co.) in phosphate-buffered saline (pH 7.4) to each well. After 24 to 48 hours, the red fluorescence-stained microplaques were visualized by placing the plates on an 8,000 µW/cm^2 304 nm UV light box (Fotodyne, Inc., New Berlin, Wis.). The plaques were counted at a magnification of x20 to x25 through a stereomicroscope.

[2] = test system: H9 cells chronically infected with HIVIIIB; assay: Inactivation of cell-associated HIV in platelet concentrate, HIV microplaque assay; type: cell-based; conditions: 150 µM in platelet concentrate; for logs of HIV inactivated (cell-associated): 3 Joules/cm^2, starting log titer 6.1 (Compound 2) or 6.6 (Compound 18); for log inactivation of HIV, dark control: no UVA
Experimental: H9 cells chronically infected with HIVIIIB were used. (H9/HTLV-III-B NIH 1983 Cat.#400). Cultures of these cells were maintained in high glucose Dulbecco Modified Eagle Medium supplemented with 2 mM L-glutamine, 200 u/mL penicillin, 200 µg/ml streptomycin, and 9% fetal bovine serum (Intergen Company, Purchase, N.Y.) For maintenance, the culture was split once a week, to a density of 3 x 10^5 to 4 x 10^5 cells/ml and about four days after splitting, 3.3% sodium bicarbonate was added as needed. For the inactivation procedure, the cells were used three days after they were split. They were pelleted from their culture medium at 400 g x 10 minutes, the supernatant was discarded, and the cells were resuspended in one to five day old human platelet concentrate (PC) (pH 7.5-6.5), to a concentration of 2 x 10^6 cells/ml. Aliquots of the PC-infected cell suspension were made for psoralen free dark controls, for psoralen free UVA only controls, for psoralen dark controls, and for the psoralen plus UVA experimental sample. Concentrated filter-sterilized stock solutions of each psoralen in water were diluted into the appropriate aliquots to yield a final concentration of 150 µM. […] After an equilibration period of thirty minutes at room temperature, 0.5 ml of each of the dark controls was placed in a cryovial and stored in the dark at -80° C. For UVA illumination, 8 ml of the psoralen free aliquot and 8 ml of each psoralen containing aliquot were introduced into a modified F1 20 Teflon™ bag (modified to be 92 cm^2 total surface area. The West Co., Phoenixvill, PA) via a plastic disposable 10 ml syringe attached to one of the polypropylne ports on the bag. This gave an average path length of 0.17 cm. The bags were then illuminated for a total exposure of 3 Joules/cm^2 in the device described in Example 1, above, attached to a circulating refrigerating water bath set at 4° C. which maintains the temperature in the bag at approximately 22-25° C. During exposure, the device was shaken on a platelet shaker (Helmer Labs, Noblesville, IN). After exposure, the contents of the bags were withdrawn by a fresh syringe through the remaining unused port on the bag, and placed in cryovials for storage in the dark at […] until analysis.
Clot removal from each sample was performed before plating.

[3] = 8 µM, 1 Minute Irradiation, Starting Titer Approx. 7.2 Logs (Table 7)
[4] = 16 µM, 1 Minute Irradiation, Starting Titer Approx. 7.1 Logs (Table 9)
[5] = 16 µM, 1 Minute Irradiation, Starting Titer Approx. 7.2 Logs (Table 7)
[6] = 16 µM, 1 Minute irradiation = 1.2 J/cm^2, Starting Titer Approx. 7.1 Logs (Table 8)
[7] = 32 µM, 1 Minute Irradiation, Starting Titer Approx. 7.2 Logs (Table 7)
[8] = 32 µM, 1 Minute irradiation = 1.2 J/cm^2, Starting Titer Approx. 7.1 Logs (Table 8)
[9] = 16 µM, HIV Starting Titer Approximately 5 Logs (Table 10)
[10] = 32 µM, HIV Starting Titer Approximately 5 Logs (Table 10)
[11] = 64 µM, HIV Starting Titer Approximately 5 Logs (Table 10)
[12] = 16 µM, HIV Starting Titer Approximately 5.4 Logs (Table 11)
[13] = 32 µM, HIV Starting Titer Approximately 5.4 Logs (Table 11)
[14] = 64 µM, HIV Starting Titer Approximately 5.4 Logs (Table 11)

Cc1oc2c(C)c3oc(=O)cc(C)c3cc2c1CN [AMT, 4'-Aminomethyl-4,5',8-trimethylpsoralen, reference compound]
R17 Log Kill (R17; [3]): 2.7 | R17 Log Kill (R17; [4]): >6 | R17 Log Kill (R17; [5]): 4.6 | R17 Log Kill (R17; [6]): 4.5 | R17 Log Kill (R17; 32 µM, 1 Minute Irradiation, Starting Titer Approx. 7.1 Logs (Table 9)): >6 | R17 Log Kill (R17; [7]): >6.2 | R17 log kill (32 µM) (R17; 32 µM, 1 Minute Irradiation, Starting Titer Approx. 7.5 Logs (Table 6)): >6.7 | R17 Log Kill (R17; [8]): 4.8 | PCR amplification of the 1072 bp amplicon of DHBV [1]: a signal could be detected | PCR amplification of the 1072 bp amplicon of DHBV ([1]; 70 and 100 mM in PC): inhibited PCR amplification | HIV Log Kill (HIV-1; [9]): 1.4

Cc1oc2c(C)c3oc(=O)cc(C)c3cc2c1COCCN [Compound 2, 4'-(4-amino-2-oxa)butyl-4,5',8-trimethylpsoralen]
R17 Log Kill (R17; [3]): 3.8 | R17 Log Kill (R17; [5]): >6.2 | R17 Log Kill (R17; [7]): >6.2 | R17 inactivation efficiency compared with AMT (R17): significantly higher inactivation efficiency than does AMT | PCR of the 1072 bp amplicon of DHBV ([1]; all concentrations (35, 70, and 100 mM) in PC): complete inhibition of PCR | inhibition of PCR of the smaller amplicons (127 bp, 327 bp) of DHBV ([1]; same concentrations as AMT): better than did AMT | logs of HIV inactivated (cell-associated) [2]: > 6.7 logs | log inactivation of HIV, dark control [2]: 0 logs | HIV Log Kill (HIV-1; [9]): 1.4 | HIV Log Kill (HIV-1; [10]): 3.8 | HIV Log Kill (HIV-1; [11]): >4.5

Cc1oc2c(C)c3oc(=O)cc(C)c3cc2c1CNCCCCN [Compound 6, 4'-(6-amino-2-aza)hexyl4,5',8-trimethylpsoralen]
R17 Log Kill (R17; 8 µM, 1 Minute Irradiation, Starting Titer Approx. 7.1 Logs (Table 9)): >6 | R17 Log Kill (R17; [4]): >6 | R17 Log Kill (R17; [6]): 6.1 | R17 Log Kill (R17; [8]): >6.1 | R17 Log Kill (R17; 64 µM, 1 Minute irradiation = 1.2 J/cm^2, Starting Titer Approx. 7.1 Logs (Table 8)): >6.1 | efficiency at inactivating R17 compared with AMT (R17; constant concentration, varying doses of UV light 1.0-3.0 J/cm^2 (FIGS. 11-17)): more efficient at inactivating R17 than was AMT | R17 inactivation efficiency compared with AMT (R17): significantly higher inactivation efficiency than does AMT | HIV Log Kill (HIV-1; [9]): 2.0 | HIV Log Kill (HIV-1; [12]): 2.1 | HIV Log Kill (HIV-1; [10]): 3.1 | HIV Log Kill (HIV-1; [13]): 3.2 | HIV Log Kill (HIV-1; [11]): >3.8 | HIV Log Kill (HIV-1; [14]): >2.8

Cc1cc(=O)oc2c(C)c3oc(COCCN)c(C)c3cc12 [Compound 18, 5'-(4-amino-2-oxa)butyl-4,4',8-trimethylpsoralen]
logs of HIV inactivated (cell-associated) [2]: > 7.2 logs | log inactivation of HIV, dark control [2]: 0 logs | HIV Log Kill (HIV-1; [12]): 1.0 | HIV Log Kill (HIV-1; [13]): 1.0 | HIV Log Kill (HIV-1; [14]): 3.1
